Laboratory results published in patent publication US8471005B2 (Cephalon, Inc., priority 2008, dated 2013).
Like-named read-outs stand apart in the source and are kept apart here.

Tests used:
ALK = target: T1, ALK (Homo sapiens, UniProt Q9UM73); assay: ALK Kinase Assay (ELISA/TRF, PLC-γ substrate); type: biochemical; conditions: read-out: ALK Potency
T1 construct: host or cells: baculovirus expression system
Method in brief: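 First, plates are coated with substrate (phospholipase C-γ, 10 μg/mL, TBS). Next, 30 ng/ml ALK initiates phosphorylation for 15 min at 37° C. Then Eu-N1 PT66 antibody is added for detection, and a nonlinear dose-response fit of percent inhibition yields IC50.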

JAK2 = target: T2, JAK2 (Homo sapiens, UniProt O60674); assay: Recombinant Human JAK2 Kinase Assay (TRF); type: biochemical; conditions: read-out: JAK2 Potency
T2 construct: host or cells: baculovirus expression system
T2 sequence (O60674 whole entry): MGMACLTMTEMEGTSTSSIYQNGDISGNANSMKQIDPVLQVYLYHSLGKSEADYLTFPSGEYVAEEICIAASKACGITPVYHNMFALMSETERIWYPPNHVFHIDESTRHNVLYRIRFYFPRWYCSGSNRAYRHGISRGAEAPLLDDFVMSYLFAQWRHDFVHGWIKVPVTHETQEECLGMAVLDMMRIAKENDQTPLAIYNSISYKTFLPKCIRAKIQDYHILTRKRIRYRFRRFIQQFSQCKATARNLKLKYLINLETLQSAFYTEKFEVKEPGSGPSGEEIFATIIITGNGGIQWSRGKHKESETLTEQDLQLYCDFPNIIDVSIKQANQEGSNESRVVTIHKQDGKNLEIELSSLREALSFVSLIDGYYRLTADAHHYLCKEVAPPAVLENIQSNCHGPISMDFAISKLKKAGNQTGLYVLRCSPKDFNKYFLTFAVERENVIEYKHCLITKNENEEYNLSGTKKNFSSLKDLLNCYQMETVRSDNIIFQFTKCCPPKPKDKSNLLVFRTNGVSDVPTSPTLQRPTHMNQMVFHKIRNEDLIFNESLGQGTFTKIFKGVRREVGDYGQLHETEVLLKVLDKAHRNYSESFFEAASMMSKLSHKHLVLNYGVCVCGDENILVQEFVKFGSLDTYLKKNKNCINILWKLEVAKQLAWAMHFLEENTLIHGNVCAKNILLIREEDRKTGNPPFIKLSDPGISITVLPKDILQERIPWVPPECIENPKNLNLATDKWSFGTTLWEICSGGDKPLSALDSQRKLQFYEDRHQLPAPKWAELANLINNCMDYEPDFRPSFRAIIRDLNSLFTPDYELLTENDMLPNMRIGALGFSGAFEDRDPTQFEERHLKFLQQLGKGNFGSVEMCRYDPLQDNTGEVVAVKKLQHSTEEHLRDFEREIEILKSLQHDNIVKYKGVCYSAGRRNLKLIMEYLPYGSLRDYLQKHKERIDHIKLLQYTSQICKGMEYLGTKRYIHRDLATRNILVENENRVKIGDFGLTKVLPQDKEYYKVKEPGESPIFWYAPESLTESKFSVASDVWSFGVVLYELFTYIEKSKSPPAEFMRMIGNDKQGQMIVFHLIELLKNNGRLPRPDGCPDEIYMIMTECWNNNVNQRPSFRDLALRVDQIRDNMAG
Method in brief: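 Europium-labelled PY100 antibody reported tyrosine phosphorylation of a Neutravidin-captured biotinyl 15-mer peptide by JAK2 (baculovirus-expressed, 15 ng/ml). Conditions: 20 mM HEPES pH 7.2, 0.2 μM ATP, 1 mM MnCl2, 0.1% BSA, DMSO 2.5% final, 20 min at room temperature.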

[1] = ALK kinase inhibition, 1 μM ATP
[2] = JAK2 kinase inhibition, 0.2 μM ATP

T1 sequence (Q9UM73 19-1620): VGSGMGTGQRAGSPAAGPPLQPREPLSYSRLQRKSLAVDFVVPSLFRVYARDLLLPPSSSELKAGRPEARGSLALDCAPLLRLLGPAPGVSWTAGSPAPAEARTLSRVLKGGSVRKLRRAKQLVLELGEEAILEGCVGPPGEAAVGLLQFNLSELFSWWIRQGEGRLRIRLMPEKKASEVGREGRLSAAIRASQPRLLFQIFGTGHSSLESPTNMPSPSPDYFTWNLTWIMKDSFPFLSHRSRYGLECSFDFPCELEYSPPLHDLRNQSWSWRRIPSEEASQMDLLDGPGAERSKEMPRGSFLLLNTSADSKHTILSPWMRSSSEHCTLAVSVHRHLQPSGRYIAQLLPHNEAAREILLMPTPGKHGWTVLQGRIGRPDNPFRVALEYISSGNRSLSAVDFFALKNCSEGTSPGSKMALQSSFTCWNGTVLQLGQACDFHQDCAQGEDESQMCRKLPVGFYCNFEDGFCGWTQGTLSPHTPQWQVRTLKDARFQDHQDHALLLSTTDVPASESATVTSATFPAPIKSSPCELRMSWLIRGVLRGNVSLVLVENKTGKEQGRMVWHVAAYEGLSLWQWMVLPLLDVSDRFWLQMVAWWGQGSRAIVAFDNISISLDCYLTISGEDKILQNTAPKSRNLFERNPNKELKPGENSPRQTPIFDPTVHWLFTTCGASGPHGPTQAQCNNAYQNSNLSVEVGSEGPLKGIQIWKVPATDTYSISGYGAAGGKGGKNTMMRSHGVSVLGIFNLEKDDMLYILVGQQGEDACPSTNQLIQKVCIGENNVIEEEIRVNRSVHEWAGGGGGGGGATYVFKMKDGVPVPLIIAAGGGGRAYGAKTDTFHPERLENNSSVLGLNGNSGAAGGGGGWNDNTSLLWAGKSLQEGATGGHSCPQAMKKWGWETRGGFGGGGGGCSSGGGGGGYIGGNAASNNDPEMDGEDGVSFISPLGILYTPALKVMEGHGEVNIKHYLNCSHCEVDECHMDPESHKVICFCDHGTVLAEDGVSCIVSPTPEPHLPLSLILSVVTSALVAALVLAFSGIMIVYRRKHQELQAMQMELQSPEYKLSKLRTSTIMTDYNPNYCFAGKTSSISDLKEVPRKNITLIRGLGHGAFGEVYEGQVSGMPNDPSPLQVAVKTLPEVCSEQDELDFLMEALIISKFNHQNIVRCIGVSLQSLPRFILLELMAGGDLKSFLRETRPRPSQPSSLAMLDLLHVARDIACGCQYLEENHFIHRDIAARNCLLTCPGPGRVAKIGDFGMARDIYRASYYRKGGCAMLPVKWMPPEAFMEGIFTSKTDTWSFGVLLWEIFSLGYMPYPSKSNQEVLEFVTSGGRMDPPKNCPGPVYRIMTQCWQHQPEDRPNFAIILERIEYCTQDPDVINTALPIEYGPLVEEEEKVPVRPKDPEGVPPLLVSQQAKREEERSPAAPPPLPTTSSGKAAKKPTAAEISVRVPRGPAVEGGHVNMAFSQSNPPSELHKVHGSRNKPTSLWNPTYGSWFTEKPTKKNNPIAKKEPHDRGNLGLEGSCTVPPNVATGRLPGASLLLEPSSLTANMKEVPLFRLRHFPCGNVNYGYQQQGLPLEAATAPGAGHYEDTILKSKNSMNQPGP

IC50 (ALK; [1]) [nM]	IC50 (JAK2; [2]) [nM]	IC50 (ALK; ALK Kinase Inhibition) [nM]	IC50 (JAK2; JAK2 Kinase Inhibition) [nM]	SMILES
1000 to 10000	< 100			Cc1cc2cnc(Nc3ccc(C4CCN(CC(N)=O)CC4)cc3)nn2c1-c1ccccc1N(C)S(C)(=O)=O [Example 516, 2-[4-(4-{7-[2-(Methanesulfonyl-methyl-amino)-phenyl]-6-methyl-pyrrolo[2,1-f][1,2,4]triazin-2-ylamino}-phenyl)-piperidin-1-yl]-acetamide]
		< 100	< 100	COc1ccc(Cl)cc1-c1ccc2cnc(Nc3ccc(N4CCN(C[C@@H](C)O)CC4)cc3)nn12 [Example 207, (R)-1-(4-{4-[7-(5-Chloro-2-methoxy-phenyl)-pyrrolo[2,1-f][1,2,4]triazin-2-ylamino]-phenyl}-piperazin-1-yl)-propan-2-ol]
		1000 to 10000	< 100	CC(=O)c1ccccc1-c1ccc2cnc(Nc3ccc(N4CCOCC4)cc3)nn12 [Example 400, 1-{2-[2-(4-Morpholin-4-yl-phenylamino)-pyrrolo[2,1-f][1,2,4]triazin-7-yl]-phenyl}-ethanone]
100 to 1000	< 100			CCN(CC)C1CCN(c2ccc(Nc3ncc4ccc(-c5cccc(S(C)(=O)=O)c5)n4n3)cc2)CC1 [Example 1137, [4-(4-Diethylamino-piperidin-1-yl)-phenyl]-[7-(3-methanesulfonyl-phenyl)-pyrrolo[2,1-f][1,2,4]triazin-2-yl]-amine]
1000 to 10000	< 100			CN1CCN(c2cccc(Nc3ncc4ccc(NCc5cccnc5)n4n3)c2)CC1 [Example 1168, N-(2)-[3-(4-Methyl-piperazin-1-yl)-phenyl]-N(7)-pyridin-3-ylmethyl-pyrrolo[2,1-f][1,2,4]triazine-2,7-diamine]
100 to 1000	< 100			CC(C)(C)NS(=O)(=O)c1cccc(-c2ccc3cnc(Nc4ccc(C5CCNCC5)cc4)nn23)c1 [Example 1059, N-tert-Butyl-3-[2-(4-piperidin-4-yl-phenylamino)-pyrrolo[2,1-f][1,2,4]triazin-7-yl]-benzenesulfonamide]
100 to 1000	< 100			CC(C)(C)NS(=O)(=O)c1cccc(-c2ccc3cnc(Nc4ccc(C5CCN(CC(N)=O)CC5)cc4)nn23)c1 [Example 1055, 2-(4-{4-[7-(3-tert-Butylsulfamoyl-phenyl)-pyrrolo[2,1-f][1,2,4]triazin-2-ylamino]-phenyl}-piperidin-1-yl)-acetamide]
		100 to 1000	< 100	c1cncc(-c2ccc3cnc(Nc4ccc(N5CCCC(N6CCOCC6)C5)cc4)nn23)c1 (stereo not shown) [Example 347, [4-(3-Morpholin-4-yl-piperidin-1-yl)-phenyl]-(7-pyridin-3-yl-pyrrolo[2,1-f][1,2,4]triazin-2-yl)-amine]
100 to 1000	< 100			CN1CCN(c2ccc(Nc3ncc4ccc(-c5cn(C)cn5)n4n3)cc2)CC1 [Example 1043, [7-(1-Methyl-1H-imidazol-4-yl)-pyrrolo[2,1-f][1,2,4]triazin-2-yl]-[4-(4-methyl-piperazin-1-yl)-phenyl]-amine]
100 to 1000	< 100			CN1CCN(c2ccc(Nc3ncc4ccc(-c5ccc(CNCCS(C)(=O)=O)o5)n4n3)cc2)CC1 [Example 1200, (7-{5-[(2-Methanesulfonyl-ethylamino)-methyl]-furan-2-yl}-pyrrolo[2,1-f][1,2,4]triazin-2-yl)-[4-(4-methyl-piperazin-1-yl)-phenyl]-amine]
		100 to 1000	< 100	CN1CCN(CC2CCN(c3ccc(Nc4ncc5ccc(-c6ccc(S(C)(=O)=O)cc6)n5n4)cc3)CC2)CC1 [Example 452, [7-(4-Methanesulfonyl-phenyl)-pyrrolo[2,1-f][1,2,4]triazin-2-yl]-{4-[4-(4-methyl-piperazin-1-ylmethyl)-piperidin-1-yl]-phenyl}-amine]
100 to 1000	< 100			CCOC(=O)c1ccccc1-c1ccc2cnc(Nc3ccc(N4CCN(C)CC4)cc3)nn12 [Example 1146, 2-{2-[4-(4-Methyl-piperazin-1-yl)-phenylamino]-pyrrolo[2,1-f][1,2,4]triazin-7-yl}-benzoic acid ethyl ester]
		< 100	< 100	CC(C)(C)NS(=O)(=O)c1cccc(-c2ccc3cnc(Nc4cccc(C5(O)CCNCC5)c4)nn23)c1 [Example 1550, N-tert-Butyl-3-{2-[3-(4-hydroxy-piperidin-4-yl)-phenylamino]-pyrrolo[2,1-f][1,2,4]triazin-7-yl}-benzenesulfonamide]
		< 100	< 100	COc1cc(N2CCC(C)(N3CCOCC3)CC2)ccc1Nc1ncc2ccc(-c3ccccc3OC)n2n1 [Example 1467]
< 100	100 to 1000			COc1cc(C2=CCNCC2)ccc1Nc1ncc2ccc(-c3ccccc3N(C)S(C)(=O)=O)n2n1 [Example 742, N-(2-{2-[2-Methoxy-4-(1,2,3,6-tetrahydro-pyridin-4-yl)-phenylamino]-pyrrolo[2,1-f][1,2,4]triazin-7-yl}-phenyl)-N-methyl-methanesulfonamide]
< 100	< 100			COc1ccccc1-c1ccc2cnc(Nc3ccc(C4CCN(C(=O)C5CCN(C)CC5)CC4)cc3)nn12 [Example 500, (4-{4-[7-(2-Methoxy-phenyl)-pyrrolo[2,1-f][1,2,4]triazin-2-ylamino]-phenyl}-piperidin-1-yl)-(1-methyl-piperidin-4-yl)-methanone]
		> 10000	100 to 1000	COCCOc1ncc2ccc(-c3ccc(S(C)(=O)=O)cc3)n2n1 [Example 197, 7-(4-Methanesulfonyl-phenyl)-2-(2-methoxy-ethoxy)-pyrrolo[2,1-f][1,2,4]triazine]
		100 to 1000	< 100	O=C(NCCCN1CCCC1)c1ccc(-c2ccc3cnc(Nc4ccc(N5CCOCC5)cc4)nn23)cc1 [Example 54, 4-[2-(4-Morpholin-4-yl-phenylamino)-pyrrolo[2,1-f][1,2,4]triazin-7-yl]-N-(3-pyrrolidin-1-yl-propyl)-benzamide]
< 100	100 to 1000			COc1cc(OC2CCN(C)CC2)ccc1Nc1ncc2ccc(-c3ccccc3N(C)S(C)(=O)=O)n2n1 [Example 999, N-(2-{2-[2-Methoxy-4-(1-methyl-piperidin-4-yloxy)-phenylamino]-pyrrolo[2,1-f][1,2,4]triazin-7-yl}-phenyl)-N-methyl-methanesulfonamide]
		100 to 1000	< 100	CN1CCN(C(=O)c2ccc(Nc3ncc4ccc(-c5ccccc5N(C)S(C)(=O)=O)n4n3)cc2)CC1 [Example 1425, N-Methyl-N-(2-{2-[4-(4-methyl-piperazine-1-carbonyl)-phenylamino]-pyrrolo[2,1-f][1,2,4]triazin-7-yl}-phenyl)-methanesulfonamide]
		1000 to 10000	< 100	c1cncc(-c2ccc3cnc(Nc4cccc(N5CCOCC5)c4)nn23)c1 [Example 309, (3-Morpholin-4-yl-phenyl)-(7-pyridin-3-yl-pyrrolo[2,1-f][1,2,4]triazin-2-yl)-amine]
100 to 1000	< 100			Cn1cnc2ccc(Nc3ncc4ccc(-c5cccc(S(=O)(=O)CC6CC6)c5)n4n3)cc21 [Example 1320, [7-(3-Cyclopropylmethanesulfonyl-phenyl)-pyrrolo[2,1-f][1,2,4]triazin-2-yl]-(3-methyl-3H-benzimidazol-5-yl)-amine]
		> 10000	< 100	Fc1cc(Nc2ncc3ccc(-c4cccc(Cl)c4)n3n2)ccc1N1CCOCC1 [Example 187, [7-(3-Chloro-phenyl)-pyrrolo[2,1-f][1,2,4]triazin-2-yl]-(3-fluoro-4-morpholin-4-yl-phenyl)-amine]
< 100	< 100			COc1cc(C2CCN(CC(N)=O)C2)ccc1Nc1ncc2ccc(-c3ccccc3OC)n2n1 (racemic) [Example 836, (±)-2-(3-{3-Methoxy-4-[7-(2-methoxy-phenyl)-pyrrolo[2,1-f][1,2,4]triazin-2-ylamino]-phenyl}-pyrrolidin-1-yl)-acetamide]
< 100	< 100			COc1cc(C2CCN(C)CC2)ccc1Nc1ncc2ccc(-c3cccc(S(=O)(=O)NC(C)(C)C)c3)n2n1 [Example 692, N-tert-Butyl-3-{2-[2-methoxy-4-(1-methyl-piperidin-4-yl)-phenylamino]-pyrrolo[2,1-f][1,2,4]triazin-7-yl}-benzenesulfonamide]
		< 100	< 100	COCCN1CCc2ccc(Nc3ncc4ccc(-c5ccccc5OC)n4n3)cc2CC1 [Example 30, [3-(2-Methoxy-ethyl)-2,3,4,5-tetrahydro-1H-benzo[d]azepin-7-yl]-[7-(2-methoxy-phenyl)-pyrrolo[2,1-f][1,2,4]triazin-2-yl]-amine]
		1000 to 10000	1000 to 10000	COc1cc(C2CCN(CC(N)=O)CC2)ccc1Nc1ncc2ccc(-c3ncccc3OC)n2n1 [Example 1532, 2-(4-{3-Methoxy-4-[7-(3-methoxy-pyridin-2-yl)-pyrrolo[2,1-f][1,2,4]triazin-2-ylamino]-phenyl}-piperidin-1-yl)-acetamide]
		1000 to 10000	< 100	COc1ccc(Cl)cc1-c1ccc2cnc(Nc3cccc(C(N)=O)c3)nn12 [Example 166, 3-[7-(5-Chloro-2-methoxy-phenyl)-pyrrolo[2,1-f][1,2,4]triazin-2-ylamino]-benzamide]
		> 10000	> 10000	COc1ccccc1-c1ccc2cnc(C(N)=O)nn12 [Example 1495, 7-(2-Methoxy-phenyl)-pyrrolo[2,1-f][1,2,4]triazine-2-carboxylic acid amide]
